This assay addresses canine TRPM8 (Canis lupus familiaris, UniProt Q1A7N1). Kind of assay: In Vitro Canine TRPM8 Functional Assay (Ca2+ fluorescence, icilin activation). Type of assay: cell-based. The conditions noted are these: for IC50: HEK293 cells stably expressing canine TRPM8, icilin activation, eight-point dose-response, read-out: IC50; for inhibition at 0.2 µM: read-out: % Inh @ 0.2; for inhibition at 0.5 µM: compound at 0.5 μM, read-out: % Inh @ 0.5. Put shortly: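 HEK293 cells stably expressing canine TRPM8 loaded with Calcium 3 dye; compound added and Ca2+ fluorescence monitored 5 min before icilin at a final level giving ~80% maximal response, read on FLIPR or FDSS. EC50 or IC50 from eight-point dose-response, quadruplicate wells per point.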

Setting [1] is: compound at 0.2 μM, canine TRPM8, icilin activation.
Where [2] appears, read: canine TRPM8, icilin activation.
[3] abbreviates: 0.2 μM compound, HEK293 cells stably expressing canine TRPM8, icilin activation.

Like-named read-outs stand apart in the source and are kept apart here.

Sequence of canine TRPM8 (Q1A7N1 1-1104): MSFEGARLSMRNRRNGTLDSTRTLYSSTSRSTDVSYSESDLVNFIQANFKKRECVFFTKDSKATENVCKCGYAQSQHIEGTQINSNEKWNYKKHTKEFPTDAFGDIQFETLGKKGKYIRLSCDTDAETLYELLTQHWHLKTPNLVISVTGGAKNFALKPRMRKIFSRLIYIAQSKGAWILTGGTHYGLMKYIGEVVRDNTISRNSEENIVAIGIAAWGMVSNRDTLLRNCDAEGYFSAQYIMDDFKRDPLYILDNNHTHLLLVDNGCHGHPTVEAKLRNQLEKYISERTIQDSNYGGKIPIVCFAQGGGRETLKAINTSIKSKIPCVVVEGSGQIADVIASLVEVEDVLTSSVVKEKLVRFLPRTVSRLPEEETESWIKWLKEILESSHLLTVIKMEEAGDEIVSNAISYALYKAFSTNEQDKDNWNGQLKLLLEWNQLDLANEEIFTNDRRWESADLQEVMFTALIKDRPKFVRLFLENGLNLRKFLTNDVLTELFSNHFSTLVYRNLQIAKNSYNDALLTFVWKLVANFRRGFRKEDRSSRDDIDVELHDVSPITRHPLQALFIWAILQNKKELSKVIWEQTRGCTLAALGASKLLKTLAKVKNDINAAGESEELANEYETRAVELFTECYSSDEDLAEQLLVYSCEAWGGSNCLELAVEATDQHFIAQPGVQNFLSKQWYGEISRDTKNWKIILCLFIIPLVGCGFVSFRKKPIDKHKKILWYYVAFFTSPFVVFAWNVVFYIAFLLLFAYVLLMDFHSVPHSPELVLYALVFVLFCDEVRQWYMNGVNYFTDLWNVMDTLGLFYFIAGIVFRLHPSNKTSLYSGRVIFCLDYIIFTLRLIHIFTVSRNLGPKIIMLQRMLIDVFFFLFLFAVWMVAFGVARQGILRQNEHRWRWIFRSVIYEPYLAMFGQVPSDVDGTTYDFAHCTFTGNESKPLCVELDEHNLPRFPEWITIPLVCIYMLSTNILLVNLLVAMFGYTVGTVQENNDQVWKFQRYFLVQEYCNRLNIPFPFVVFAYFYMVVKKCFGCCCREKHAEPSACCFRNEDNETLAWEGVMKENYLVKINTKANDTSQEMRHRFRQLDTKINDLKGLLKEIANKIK

The term IC50 denotes the concentration that inhibits the measured activity by half. Consider `CNc1ccc(S(=O)(=O)N(CCC2CC2)c2cc3ccccc3s2)cc1` [Compound 688, N-(Benzo[b]thiophen-2-yl)-N-(2-cyclopropyl-ethyl)-4-methylamino-benzenesulfonamide], for which the IC50 was found to be 60.2 nM. Besides, under setting [1], the inhibition at 0.2 µM turned out to be 99%. For the molecule `O=S1(=O)C(N(Cc2ccc(F)c(C(F)(F)F)c2)S(=O)(=O)c2ccccc2)=Cc2ccccc21` [Compound 421, N-(4-Fluoro-3-trifluoromethyl-benzyl)-N-(1,1-dioxo-benzo[b]thiophen-2-yl)-benzenesulfonamide], the IC50 came out at 64 nM. Under setting [1], the inhibition at 0.2 µM was determined as 90%. For `O=C1NCCN1CCN(c1sc2ccccc2c1Br)S(=O)(=O)c1ccccc1` [Compound 240, N-(3-Bromo-benzo[b]thiophen-2-yl)-N-[2-(2-oxo-imidazolidin-1-yl)-ethyl]-benzenesulfonamide], the inhibition at 0.5 µM under setting [2] stood at 43%. For `O=S(=O)(c1cccc(-c2nnn[nH]2)c1)N(Cc1ccc(F)c(C(F)(F)F)c1)c1sc2ccccc2c1Br` [Compound 576, N-(3-Bromo-benzo[b]thiophen-2-yl)-N-(4-fluoro-3-trifluoromethyl-benzyl)-3-(1H-tetrazol-5-yl)-benzenesulfonamide], the IC50 was determined as 19.1 nM. The inhibition at 0.2 µM under setting [1] worked out at 100%. The like results for `Cc1cc(C(=O)O)sc1S(=O)(=O)N(Cc1ccc(F)c(C(F)(F)F)c1)c1sc2ccccc2c1C` [Compound 528, N-(3-Methyl-benzo[b]thiophen-2-yl)-N-(4-fluoro-3-trifluoromethyl-benzyl)-(5-carboxy-3-methyl-thien-2-yl)-sulfonamide] were, in that order, 16 nM and 102%.

As for `O=C(O)c1ccc(S(=O)(=O)N(CC2CC2)c2sc3ccccc3c2Cl)cc1` [Compound 478, N-(3-Chloro-benzo[b]thiophen-2-yl)-N-(cyclopropylmethyl)-4-carboxy-benzenesulfonamide], the IC50 was determined as 25 nM. The inhibition at 0.2 µM under setting [1] amounted to 99%. The like results for `O=S(=O)(c1ccc(Cl)nc1)N(Cc1ccc(F)c(C(F)(F)F)c1)c1cc2ccccc2s1` [Compound 311, N-(Benzo[b]thiophen-2-yl)-N-(4-fluoro-3-trifluoromethyl-benzyl)-2-chloro-pyridin-5-ylsulfonamide] were, in that order, 148 nM and 82%. In the case of `CCCCN(c1sc2ccccc2c1Cl)S(=O)(=O)c1ccccc1` [Compound 83, N-(Butyl)-N-(3-chloro-benzo[b]thiophen-2-yl)-benzenesulfonamide], the IC50 came out at 48 nM. Moreover, the inhibition at 0.5 µM under setting [2] came to 101%. As for `O=S(=O)(c1ccccc1)N(CCc1ccccc1)c1sc2ccccc2c1Cl` [Compound 85, N-(3-Chloro-benzo[b]thiophen-2-yl)-N-(phenethyl)-benzenesulfonamide], under setting [2], the inhibition at 0.5 µM is 100%. For the molecule `COC(=O)c1ccc(S(=O)(=O)N(CCCC(F)(F)F)c2sc3ccccc3c2C)cc1` [Compound 630, N-(3-Methyl-benzo[b]thiophen-2-yl)-N-(4,4,4-trifluoro-butyl)-4-carbomethoxy-benzenesulfonamide], the half-inhibitory concentration (IC50) was 35.6 nM. The inhibition at 0.2 µM under setting [1] was 103%. With `CC(C)(O)c1c(N(Cc2ccc(F)c(C(F)(F)F)c2)S(=O)(=O)c2ccc(Br)cc2)sc2ccccc12` [Compound 388], the concentration for half-maximal inhibition (IC50) amounted to 19 nM. Further, the “% Inh @ 0.2 (μM)” value under setting [1] is reported as 97%. For `Cc1c(N(CCCCC(F)(F)F)S(=O)(=O)c2ccc(-c3nnn[nH]3)nc2)sc2ccccc12` [Compound 806], the inhibition at 0.2 µM under setting [3] stood at 102%.

Consider `CCS(=O)(=O)N(CCOC(C)(C)C)c1sc2ccccc2c1C(C)=O` [Compound 123, N-(3-Acetyl-benzo[b]thiophen-2-yl)-N-(2-tert-butoxy-ethyl)-ethanesulfonamide], for which the inhibition at 0.2 µM under setting [1] came to 60%. In the case of `O=S(=O)(c1cccnc1Cl)N(Cc1ccc(F)c(C(F)(F)F)c1)c1sc2ccccc2c1Br` [Compound 319, N-(3-Bromo-benzo[b]thiophen-2-yl)-N-(4-fluoro-3-trifluoromethyl-benzyl)-2-chloro-pyridin-3-ylsulfonamide], the IC50 worked out at 24 nM. For the same molecule, under setting [1], the inhibition at 0.2 µM is 100%. As for `CNC1=C(N(CCC2CC2)S(=O)(=O)c2ccccc2)S(=O)(=O)c2ccccc21` [Compound 644, N-(2-Cyclopropylethyl)-N-(3-methylamino-1,1-dioxo-1H-benzo[b]thiophen-2-yl)-benzenesulfonamide], the inhibition at 0.2 µM under setting [1] came out at 63%.

`O=c1[nH]c(-c2ccc(S(=O)(=O)N(CCCCC(F)(F)F)c3sc4ccccc4c3Br)cc2)ns1` [Compound 712, N-(3-Bromo-benzo[b]thiophen-2-yl)-N-(5,5,5-trifluoro-pentyl)-4-(5-oxo-4,5-dihydro-[1,2,4]thiadiazol-3-yl)-benzenesulfonamide]: the IC50 was found to be 4 nM. Also, under setting [1], the inhibition at 0.2 µM was determined as 102%. With `COC(=O)c1cccc(S(=O)(=O)N(Cc2ccc(F)c(C(F)(F)F)c2)c2sc3ccccc3c2C)c1` [Compound 137, N-(3-Methyl-benzo[b]thiophen-2-yl)-N-(4-fluoro-3-trifluoromethyl-benzyl)-3-carbomethoxy-benzenesulfonamide], the 50% inhibitory concentration (IC50) was determined as 8 nM. Further, the inhibition at 0.2 µM under setting [1] came to 98%.

For the molecule `O=c1[nH]c(-c2ccc(S(=O)(=O)N(CCCC(F)(F)F)c3sc4ccccc4c3Br)cc2)no1` [Compound 514, N-(3-Bromo-benzo[b]thiophen-2-yl)-N-(4,4,4-trifluoro-butyl)-4-(5-oxo-4,5-dihydro-[1,2,4]oxadiazol-3-yl)-benzenesulfonamide], the IC50 was determined as 46 nM. Moreover, the inhibition at 0.2 µM under setting [1] was 100%. Consider `CCS(=O)(=O)N(Cc1ccc(F)c(C(F)(F)F)c1)c1cc2ccccc2s1` [Compound 43, N-(Benzo[b]thiophen-2-yl)-N-(4-fluoro-3-trifluoromethyl-benzyl)-ethanesulfonamide], for which the concentration for half-maximal inhibition (IC50) was 25 nM. Besides, the inhibition at 0.5 µM under setting [2] turned out to be 94%. `O=C1CCC(=O)N1CCN(c1sc2ccccc2c1Br)S(=O)(=O)c1ccccc1` [Compound 257, N-(3-Bromo-benzo[b]thiophen-2-yl)-N-[2-(2,5-dioxo-pyrrolidin-1-yl)-ethyl]-benzenesulfonamide]: the inhibition at 0.2 µM under setting [1] was found to be 62%. As to `O=C(O)c1ccc(S(=O)(=O)N(CCC(F)(F)F)c2sc3ncccc3c2Cl)cc1` [Compound 815, N-(3-Chloro-thieno[2,3-b]pyridin-2-yl)-N-(3,3,3-trifluoro-propyl)-4-carboxy-benzenesulfonamide], the inhibition at 0.2 µM under setting [3] is 44%. With `Cc1c(N(CCCC(F)(F)F)S(=O)(=O)c2ccc(C(=O)O)cc2)sc2ccccc12` [Compound 410, N-(3-Methyl-benzo[b]thiophen-2-yl)-N-(4,4,4-trifluoro-butyl)-4-carboxy-benzenesulfonamide], the IC50 was 17 nM. Also, the inhibition at 0.2 µM under setting [1] is 96%. For the molecule `O=[N+]([O-])c1cccc(CN(c2sc3ccccc3c2Br)S(=O)(=O)c2ccccc2)c1` [Compound 167, N-(3-Bromo-benzo[b]thiophen-2-yl)-N-(3-nitro-benzyl)-benzenesulfonamide], under setting [2], the inhibition at 0.5 µM is 101%. Turning to `O=S(=O)(c1ccccc1)N(Cc1ccc(C(F)(F)F)cc1)c1sc2ccccc2c1Cl` [Compound 8, N-(3-Chloro-benzo[b]thiophen-2-yl)-N-(4-trifluoromethyl-benzyl)-benzenesulfonamide], the IC50 worked out at 10 nM. Also, the inhibition at 0.5 µM under setting [2] was 99%.

Values taken from patent US9434711B2 (Janssen Pharmaceutica, NV, priority 2007, dated 2016).
